SMILES strings stand for the structures. Counter-ions that a name gives are not always drawn.

On to `CC1CN(Cc2ccc(CCC(=O)Nc3ccc(-c4ccc(Cl)cc4)cc3)cc2)CC(C)O1` (stereo not shown) [Example 6.21, N-(4′-chlorobiphenyl-4-yl)-3-[4-(2,6-dimethylmorpholin4-ylmethyl)phenyl]propionamide], for which the melting point – broadly, the temperature, or range, at which the solid turns liquid – fell in the range of 158.5 to 160.5 °C.
As for `O=C(Nc1ccc(-c2ccc(Cl)cc2)cc1)C1CC1c1ccc(CN2CCOCC2)cc1` (stereo not shown) [Example 6.217, 2-(4-morpholin-4-ylmethylphenyl)cyclopropanecarboxylic acid (4′-chlorobiphenyl-4-yl)amide], the melting point was 187 to 188 °C.
As for `O=C(/C=C/c1ccc(CN2CC[C@H](O)C2)cc1)Nc1ccc(-c2ccc(Cl)cc2)cc1` [Example 5.9, (E)-N-(4′-chlorobiphenyl-4-yl)-3-[4-((S)-3-hydroxypyrrolidin-1-ylmethyl)phenyl]acrylamide], the melting point lay in the range of 178 to 179 °C.
The compound `NC(=O)C1CCN(Cc2ccc(/C=C/C(=O)Nc3ccc(-c4ccc(Cl)cc4)cc3)cc2)CC1` [Example 5.6, 1-{4-[(E)-2-(4′-chlorobiphenyl-4-ylcarbamoyl)vinyl]benzyl}piperidine-4-carboxylic acid amide] returned a melting point of 254 to 255 °C.
Turning to `CCN(CC)CCOc1ccc(NC(=O)C#Cc2ccc(C(F)(F)F)cc2Cl)cc1` [Example 3.38, 3-(2-chloro-4-trifluoromethylphenyl)propynoic acid-[4-(2-diethylaminoethoxy)phenyl]amide], the melting point fell in the range of 194 to 197 °C.
On to `COc1cc(NC(=O)C#Cc2ccc(C(F)(F)F)cc2Cl)ccc1OCCN1CCC(OC)CC1` [Example 4.274, 3-(2-chloro-4-trifluoromethylphenyl)propynoic acid-{3-methoxy-4-[2-(4-methoxypiperidin-1-yl)ethoxy]phenyl}amide], for which the melting point was in the range of 195 to 197 °C.
Under `CN(Cc1ccc(/C=C/C(=O)Nc2ccc(-c3ccc(Cl)cc3)cc2)cc1)C1CCN(C(=O)OC(C)(C)C)CC1` [Example 5.35, tert-butyl 4-({-[(E)-2-(4′-chlorobiphenyl-4-ylcarbamoyl)vinyl]benzyl}methylamino)piperidine-1-carboxylate] stands 168 to 169 °C.
Under `CC(C)N(Cc1ccc(CCC(=O)Nc2ccc(-c3ccc(Cl)cc3)cc2)cc1)C1CCCCC1` [Example 6.40, N-(4′-chlorobiphenyl-4-yl)-3-{4-[(cyclohexylisopropylamino)methyl]phenyl}propionamide] stands 165 °C; under `CC1CC(C)CN(Cc2ccc(NC(=O)C#Cc3ccc(-c4ccc(Cl)cc4)cn3)cc2)C1` (stereo not shown) [Example 3.29, 3-[5-(4-chlorophenyl)pyridin-2-yl]propynoic acid-[4-(3,5-dimethylpiperidin-1-ylmethyl)phenyl]amide], 195 to 197 °C; under `CN(Cc1ccncc1)Cc1ccc(CCC(=O)Nc2ccc(-c3ccc(Cl)cc3)cc2)cc1` [Example 6.32, N-(4′-chlorobiphenyl-4-yl)-3-{4-[(methylpyridin-4-ylmethylamino)methyl]phenyl}propionamide], 102 °C.
Take `O=C(CCc1ccc(CNCC2CCCCC2)cc1)Nc1ccc(-c2ccc(Cl)cc2)cc1` [Example 6.22, N-(4′-chlorobiphenyl-4-yl)-3-{4-[(cyclohexylmethylamino)methyl]phenyl}propionamide]: the melting point lay in the range of 201 to 204 °C.
Under `CN(Cc1ccc(C#CC(=O)Nc2ccc(-c3ccc(Cl)cc3)cc2)cc1)C1CCCC1` [Example 1.425] stands 217 to 219 °C; under `O=C(C#Cc1ccc(CCN2CCCC2)cc1)Nc1ccc(-c2ccc(Cl)cc2)cc1` [Example 2.4, 3-[4-(2-pyrrolidin-1-ylethyl)phenyl]propynoic acid-(4′-chlorobiphenyl-4-yl)amide], 217 to 218 °C.
In turn, `O=C(CCc1ccc(CNCCC2CCCCC2)cc1)Nc1ccc(-c2ccc(Cl)cc2)cc1` [Example 6.35, N-(4′-chlorobiphenyl-4-yl)-3-{4-[(cyclohexylethylamino)methyl]phenyl}propionamide] had a melting point of 149 to 150.5 °C.
In the case of `CC#Cc1ccc(NC(=O)C#Cc2ccc(CCN3CCCC3)cc2)cc1` [Example 2.5, 3-[4-(2-pyrrolidin-1-ylethyl)phenyl]propynoic acid-(4-prop-1-ynylphenyl)amide], the melting point was 198 to 199 °C.
`COc1cc(NC(=O)C#Cc2ccc(C(F)(F)F)cc2Cl)ccc1OCCN1CCC(C)CC1` [Example 4.270, 3-(2-chloro-4-trifluoromethylphenyl)propynoic acid-{3-methoxy-4-[2-(4-methylpiperidin-1-yl)ethoxy]phenyl}amide] returned a melting point of 207 to 209 °C.
The compound `CC1(O)CCN(Cc2ccc(C#CC(=O)Nc3ccc(-c4ccc(Cl)cc4)cc3)cc2)CC1` [Example 1.37, 3-[4-(4-hydroxy-4-methylpiperidin-1-ylmethyl)phenyl]propynoic acid-(4′-chlorobiphenyl-4-yl)amide] gave a melting point of 192 to 193 °C.
Under `O=C(C#Cc1ccc(CN2CCC[C@@H]2CO)cc1)Nc1ccc(-c2ccc(Cl)cc2)cc1F` [Example 1.20, 3-[4-((R)-2-hydroxymethylpyrrolidin-1-ylmethyl)phenyl]propynoic acid-(4′-chloro-3-fluorobiphenyl-4-yl)amide] stands 146 to 148 °C.
`CCN(Cc1ccc(CCC(=O)Nc2ccc(-c3ccc(Cl)cc3)cc2)cc1)CC(C)(C)O` [Example 6.42, N-(4′-chlorobiphenyl-4-yl)-3-(4-{[ethyl-(2-hydroxy-2-methylpropyl)amino]methyl}phenyl)propionamide] registered a melting point of 135 °C.
Consider `C[C@@H]1C[C@H](C)CN(Cc2ccc(/C=C/C(=O)Nc3ccc(-c4ccc(Cl)cc4)cc3)cc2)C1` [Example 5.3, (E)-N-(4′-chlorobiphenyl-4-yl)-3-[4-(cis-3,5-dimethylpiperidin-1-ylmethyl)phenyl]acrylamide], for which the melting point was 217 to 218 °C.
As to `O=C(C#Cc1ccc(C(F)(F)F)cc1Cl)Nc1ccc(OCCn2cnnc2)cc1` [Example 3.44, 3-(2-chloro-4-trifluoromethylphenyl)propynoic acid-[4-(2-[1.2.4]triazol-4-ylethoxy)phenyl]amide], the melting point is 223 to 227 °C.
For the compound `O=C(C#Cc1ccc(-c2ccc(Cl)cc2)cc1)Nc1ccc(CN2CCCCC2)c(Cl)c1` [Example 3.20, 3-(4′-chlorobiphenyl-4-yl)propynoic acid-(3-chloro-4-piperidin-1-ylmethylphenyl)amide], the melting point was 277 to 281 °C.
As to `COc1cc(NC(=O)C#Cc2ccc(C(F)(F)F)cc2Cl)ccc1OCCN1C(C)CCCC1C` (stereo not shown) [Example 4.277, 3-(2-chloro-4-trifluoromethylphenyl)propynoic acid-{4-[2-(2,6-dimethylpiperidin-1-yl)ethoxy]-3-methoxyphenyl}amide], the melting point was 225 to 227 °C.
Under `CC1(O)CCN(Cc2ccc(CCC(=O)Nc3ccc(-c4ccc(Cl)cc4)cc3)cc2)CC1` [Example 6.9, N-(4′-chlorobiphenyl-4-yl)-3-[4-(4-hydroxy-4-methylpiperidin-1-ylmethyl)phenyl]propionamide] stands 192 °C; under `CCN(CC)CCOc1ccc(NC(=O)C#Cc2c(Cl)cc(Cl)cc2Cl)cc1Cl` (as salt: hydrochloride) [Example 4.5, 3-(2,4,6-trichlorophenyl)propynoic acid-[3-chloro-4-(2-diethylaminoethoxy)phenyl]amide hydrochloride], 188 to 191 °C; under `COC1CCN(Cc2ccc(NC(=O)C#Cc3ccc(-c4ccc(Cl)cc4)cc3)cc2)CC1` [Example 3.13, 3-(4′-chlorobiphenyl-4-yl)propynoic acid-[4-(4-methoxypiperidin-1-ylmethyl)phenyl]amide], 227 to 234 °C.
`COc1ccc(-c2ccc(NC(=O)CCc3ccc(CN4CCCC4)cc3)cc2)cc1` [Example 6.1, N-(4′-methoxybiphenyl-4-yl)-3-(4-pyrrolidin-1-ylmethylphenyl)propionamide]: the melting point lay within 185 to 188 °C.
`CC1CCC(N(C)Cc2ccc(/C=C/C(=O)Nc3ccc(-c4ccc(Cl)cc4)cc3)cc2)CC1` (stereo not shown) [Example 5.29, (E)-N-(4′-chlorobiphenyl-4-yl)-3-(4-{[methyl-(4-methylcyclohexyl)amino]methyl}phenyl)acrylamide] registered a melting point of 227 to 258 °C.
Turning to `O=C(CCc1ccc(CNC2CC2)cc1)Nc1ccc(-c2ccc(Cl)cc2)cc1` (as salt: trifluoroacetate) [Example 6.43, N-(4′-chlorobiphenyl-4-yl)-3-(4-cyclopropylaminomethylphenyl)propionamide trifluoroacetate], the melting point came to 208 °C.
As to `CCN(CC)CCOc1ccc(NC(=O)C#Cc2ccc(C(F)(F)F)cc2Cl)cc1NS(C)(=O)=O` [Example 4.23, 3-(2-chloro-4-trifluoromethylphenyl)propynoic acid-[4-(3-diethylaminoethoxy)-3-methanesulfonylaminophenyl]amide], the melting point lay within 57 to 60 °C.
In the case of `O=C(CCc1ccc(CN2CCCC2)cc1)Nc1ccc(-c2ccc(Cl)cc2)cc1` [Example 6.11, N-(4′-chlorobiphenyl-4-yl)-3-(4-pyrrolidin-1-ylmethylphenyl)propionamide], the melting point is 183 to 184 °C.
Under `CC1CCN(C2(c3ccc(C#CC(=O)Nc4ccc(-c5ccc(Cl)cc5)cc4)cc3)CC2)CC1` [Example 1.424, 3-{4-[1-(4-methylpiperidin-1-yl)cyclopropyl]phenyl}propynoic acid(4′-chlorobiphenyl-4-yl)amide] stands 128 to 129 °C.
With `CN1CCN(Cc2ccc(NC(=O)C#Cc3ccc(-c4ccc(Cl)cc4)cc3)cc2)CC1` [Example 3.8, 3-(4′-chlorobiphenyl-4-yl)propynoic acid-[4-(4-methylpiperazin-1-ylmethyl)phenyl]amide], the melting point was 182 to 185 °C.
Under `O=C(CCc1ccc(CN2CCOCC2)cc1)Nc1ccc(-c2ccc(Cl)cc2)cc1` [Example 6.4, N-(4′-chlorobiphenyl-4-yl)-3-(4-morpholin-4-ylmethylphenyl)propionamide] stands 193 to 194 °C.

These data come from US7592373B2 (Boehringer Ingelheim International GmbH, priority 2003, dated 2009).
